Laboratory results published in US5366980A, “Use of dextromethorphan and an oxidase inhibitor to treat dermatitis” (priority 1993, dated 1994).
Where “and” joins values, the source holds several entries; their conditions need not be identical. Equal entries are not always repeated. Where two headings read alike, the source gives them in different places.

Legend:
[1] = test system: debrisoquin hydroxylase; experiment: Urinary DM/DR ratio after oral dextromethorphan without and with quinidine (Example 1); assay type: in vivo, human; details: ALS patients
Experimental: Since the research that led to this invention was done by a neurologist who was initially interested in finding out whether DM might be able to retard the progress of ALS, the initial studies were done on patients suffering from ALS, most of whom are adults more than 50 years old.
Six patients suffering from ALS were administered orally a single 60 mg dextromethorphan dose. Several hours later, a urine sample was collected, and the urine concentrations of dextromethorphan (DM) and dextrorphan (DR) were measured as described below to determine a DM/DR ratio. […] In a different week, 60 mg of DM and 150 mg of quinidine were orally administered to the same patients, and urinary DM and DR levels and DM/DR ratios were determined again.
DM and DR urinary levels without quinidine were determined by adding […] of thebaine as an internal standard to 1 mL of urine. To this was added 2000 units of beta-glucuronidase in 1 mL of acetate buffer (0.1M, pH 5.0). The mixture was incubated for 18 hours at 37° C. and then extracted by adding 1 mL of phosphate buffer (pH 12, 0.10M) and 7 mL of n-butanol/hexane (10:90 v/v). After mixing and centrifugation, the organic layer was transferred to a clean tube and acidified with 400 uL of 0.01 N HCL. 20 microliters (uL) of aqueous phase was injected into a high performance liquid chromatography (HPLC) system. The HPLC used a phenyl column equilibrated with a mobile phase of acetonitrile:water (51:49, v/v) containing 10 mM KHPO4, 10 mM hexane sulfonic acid, pH 4.0 (flow rate 1.2 mL/min). Detection of thebaine, dextromethorphan and dextrorphan was achieved by fluorescence (Kratos FS-980 Fluorometer) with an excitation wavelength of 228 nm and no emission cutoff filter.
A gas chromatograph/mass spectroscopy (gc/ms) assay was employed for determining dextromethorphan and dextrorphan levels in the presence of quinidine. Briefly, 0.5 ml urine samples were spiked with 500 nanograms (ng) of dimethacrine. The urine pH was adjusted to 5.0 with 0.1M acetate buffer (usually about 1.0 ml), and beta-glucuronidase was added (2000 units/ml urine). […]

[2] = Plasma concentration of DM 10-12 hours after oral dosing, without and with quinidine (Examples 2 and 3); assay type: in vivo, human; details: 10-12 hours, one value per patient
Experimental: Plasma Concentrations of DM
Five patients were orally administered 120 mg of DM, with no co-administration of quinidine. Between 10 and 12 hours later, blood was sampled, blood plasma was isolated by centrifugation, and the plasma was analyzed to determine the DM concentration using the thebaine/HPLC method.
During a different week, the same patients were orally administered 60 mg of DM (half the control dosage) and 150 mg of quinidine. Between 10 and 12 hours later, blood was sampled and the plasma was analyzed for DM using thebaine/HPLC.
Additional studies were undertaken using a range of dosages of DM to establish a dose-response curve that correlates the quantity of DM orally administered to a patient with blood plasma concentrations 10 to 12 hours later (determined as described in Example 2). All patients received 150 mg of quinidine daily. The results of those studies are shown in graphical form in FIG. 2, with mean values shown as open squares and standard deviation ranges shown by vertical bars. The ascending line through the median values is a linear approximation; a curve based on more extensive data would probably show a horizontal asymptote.

[3] = test system: dermatitis; experiment: Suppression of dermatitis (lichen planus; severe intermittent dermatitis) in patients; assay type: in vivo, human; details: patients treated with DM alone
Source text: Suppression of Dermatitis
During an initial examination, the Applicant discovered that patient two, a Caucasion person who was suffering from ALS, suffered from a severe dermatologic condition involving lesions which appear in relatively small purplish patches ("polygonal papules"). Their condition had recently been diagnosed as lichen planus. The etiology is unknown, although a variety of drugs reportedly can aggravate this condition. The patient reported that the lesions were severely itchy, and they had been suffering from it for roughly ten years. They had been prescribed a number of drugs (including various steroids such as prednisone) in an effort to control the itching; the most recent prescription was "Doxepin," a tricyclic antidepressant. None of those agents offered much relief.
The patient began an initial treatment of quinidine alone (150 mg/day) for a week.
The specialist carried out a preliminary test involving DM and quinidine on a person who suffered from severe but intermittent dermatitis.

[4] = test system: ALS patients; experiment: Tolerance and side effects in ALS patients and control subjects; assay type: in vivo, human; details: ALS patients and controls; drug(s) as labelled
Source text: (§1) All patients who became involved in the study initially received DM and/or quinidine alone, to ensure that these drugs would not adversely affect them. The drugs were coadministered only after a tolerance and/or dosage range for one drug had been established for a patient.
However, quinidine is not pharmaceutically acceptable by all patients.

[5] = test system: emotional lability; experiment: Suppression of emotional lability in ALS patients; assay type: in vivo, human
Source text: Emotional lability is a complex problem in which patients suffering from neurological damage (typically due to a stroke or head injury or a neurologic disease such as ALS or Alzheimer's disease) become unable to control spasmodic emotional outbursts such as explosive laughing or uncontrollable weeping. This discovery involving emotional lability is discussed in U.S. Pat. No. 5,206,248, which was also invented by the Applicant; the contents of that patent are incorporated by reference.
as §1

[6] = test system: ALS; experiment: Effect on progress of ALS; assay type: in vivo, human; details: loss of strength, slurring of speech, other muscular symptoms
Source text: As mentioned above, DM is being studied as a possible treatment for neurodegenerative diseases such as Parkinson's disease, Alzheimer's disease, and ALS. Accordingly, the Applicant, a neurologist who specializes in working with ALS patients, undertook a study of DM to determine whether it might be able to retard the progress of ALS.
However, during the course of that study, other important findings emerged, as discussed below.

[7] = test system: sigma receptors; details: reportedly; cited from earlier work
[8] = test system: N-methyl-D-aspartate (NMDA) receptors; details: reportedly; cited from earlier work
[9] = test system: neuronal calcium channels; details: reportedly, Carpenter et al 1988, cited from earlier work
[10] = most people; cited from earlier work
[11] = test system: ALS patients; details: DM up to about 300 mg/day or higher; quinidine in prolonged QT interval; cited from earlier work
[12] = test system: debrisoquin hydroxylase; experiment: Urinary DM/DR ratio with other antioxidants in specific patients (Example 5); details: urine, HPLC; preliminary; one value per patient
Source text: The second method involves sampling body fluids to compare the concentrations of DM and its primary metabolite, dextrorphan (DR). Although blood concentrations can be directly evaluated by drawing blood samples if desired, an easier and painless approach is to analyze urine samples. Blood or urine samples can be processed using methods such as high performance liquid chromatography (HPLC), as described in Example 5. […] The height of each peak, or the area under each peak, will indicate the quantity of each compound in the blood or urine sample. The heights of the DM and DR peaks are then divided, to determine the DM/DR ratio. The ratio which occurs after administration of a candidate antioxidant drug is compared to the DM/DR ratio in the same patient under control conditions (i.e., before administration of any antioxidant).
Preliminary Analysis of Other Antioxidants
To further evaluate that possibility, the Applicant arranged for chemical analyses of urine samples, using HPLC, in the labs of an independent investigator.

Which results are given for `COc1ccc2c(c1)[C@@]13CCCC[C@H]1[C@@H](C2)N(C)CC3` [DM, (+)-3-methoxy-N-methylmorphinan]?
Metabolism of DM in ALS patients vs healthy adults [1]: No difference in the metabolism; DM plasma level, with quinidine ([2]; 60 mg DM once oral + quinidine 150 mg): 33 ng/mL and 29.7 ng/mL and 29.0 ng/mL and 28.8 ng/mL and 45.6 ng/mL; DM plasma level, no quinidine ([2]; 120 mg/day DM oral, quinidine dose 0): 9.3 ng/mL and 16.5 ng/mL and 6.05 ng/mL; Therapeutic benefits (emotional lability and dermatitis) [3]: not detectable; Adverse side effects [4]: no ill effects; Reduction of emotional lability symptoms [5]: not observed in any patients who received DM alone; Slowing of progressive ALS symptoms [6]: not able to slow down the progressive loss of strength, slurring of speech, and other muscular symptoms; Activity at sigma receptors [7]: sigma agonists; Activity at NMDA receptors [8]: NMDA antagonists; Activity at neuronal calcium channels ([9]; listed as Dextromethorphan): suppress neural activity mediated by neuronal calcium channels; Activity at neuronal calcium channels ([9]; listed as dextromethorphan): calcium channel antagonists; Disappearance from the bloodstream [10]: disappears fairly rapidly from the bloodstream; Adverse effects (general knowledge) [11]: any adverse effects (such as dizziness or nausea) usually disappear quickly when the dosage is lowered; DM/DR ratio, no antioxidant [12]: 0.02 and 0.00 and 0.06 and 0.03
